{
  "source": "patent US20230085307A1",
  "about": "“PYRIDAZINONE COMPOUND AND HERBICIDE” (NISSAN CHEMICAL CORPORATION, priority 2019, published 2023)",
  "key": {"[1]": {"test_system": "Italian ryegrass", "experiment": "Test Example 5: herbicidal effect by foliage application, plastic box (Table 20, symbol K)", "type": "in vivo, Italian ryegrass (Lolium multiflorum)", "settings": "foliage application, AAH 320 g/ha, evaluated three weeks after application", "how_it_was_run": "(§1)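 Plants were sown into sterilized diluvial soil under about 1.5 cm cover and kept in a greenhouse at 25° C. to 30° C. Fourteen days on, foliage received an even spray of the diluted emulsion. Herbicidal or crop effect was judged three weeks afterwards.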"}, "[2]": {"test_system": "windgrass", "experiment": "Test Example 5: herbicidal effect by foliage application, plastic box (Table 20, symbol L)", "type": "in vivo, windgrass (Apera spica-venti)", "settings": "foliage application, AAH 320 g/ha, evaluated three weeks after application", "how_it_was_run": "as §1"}, "[3]": {"test_system": "lambsquarters", "experiment": "Test Example 4: herbicidal effect by soil treatment (Table 19, symbol O)", "type": "in vivo, lambsquarters (Chenopodium album)", "settings": "amount of applied herbicide 320 g/ha", "how_it_was_run": "(§2)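 Pre-emergence style soil spray: seeds under ~1.5 cm sterilized diluvial soil received a uniform coat of emulsion diluted to the predetermined herbicide amount. Greenhouse 25–30° C; readout at week three on previously defined criteria.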"}, "[4]": {"test_system": "chickweed", "experiment": "Test Example 5: herbicidal effect by foliage application, plastic box (Table 20, symbol P)", "type": "in vivo, common chickweed (Stellaria media)", "settings": "foliage application, AAH 320 g/ha, evaluated three weeks after application", "how_it_was_run": "as §1"}, "[5]": {"test_system": "green foxtail", "experiment": "Test Example 5: herbicidal effect by foliage application, plastic box (Table 20, symbol G)", "type": "in vivo, green foxtail (Setaria viridis)", "settings": "foliage application, AAH 320 g/ha, evaluated three weeks after application", "how_it_was_run": "as §1"}, "[6]": {"test_system": "barnyard grass", "experiment": "Test Example 3: herbicidal effect by foliage application, Wagner pot (Table 18, symbol H)", "type": "in vivo, barnyard grass (Echinochloa crus-galli)", "settings": "amount of applied herbicide 320 g/ha", "how_it_was_run": "(§3)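 Plants were sown in alluvial soil held under 0.1–0.5 cm standing water and grown 14 days in a greenhouse at 25–30 °C. An emulsifiable formulation, water-diluted to the set dose, was then sprayed onto the foliage, and effects were scored three weeks later using previously defined criteria.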"}, "[7]": {"test_system": "windgrass", "experiment": "Test Example 4: herbicidal effect by soil treatment (Table 19, symbol L)", "type": "in vivo, windgrass (Apera spica-venti)", "settings": "amount of applied herbicide 320 g/ha", "how_it_was_run": "as §2"}, "[8]": {"test_system": "southern crabgrass", "experiment": "Test Example 5: herbicidal effect by foliage application, plastic box (Table 20, symbol F)", "type": "in vivo, southern crabgrass (Digitaria ciliaris)", "settings": "foliage application, AAH 320 g/ha, evaluated three weeks after application", "how_it_was_run": "as §1"}, "[9]": {"test_system": "redroot pigweed", "experiment": "Test Example 5: herbicidal effect by foliage application, plastic box (Table 20, symbol N)", "type": "in vivo, redroot pigweed (Amaranthus retroflexus)", "settings": "foliage application, AAH 320 g/ha, evaluated three weeks after application", "how_it_was_run": "as §1"}, "[10]": {"test_system": "persian speedwell", "experiment": "Test Example 4: herbicidal effect by soil treatment (Table 19, symbol R)", "type": "in vivo, Persian speedwell (Veronica persica)", "settings": "amount of applied herbicide 320 g/ha", "how_it_was_run": "as §2"}, "[11]": {"test_system": "wild oat", "experiment": "Test Example 5: herbicidal effect by foliage application, plastic box (Table 20, symbol I)", "type": "in vivo, wild oat (Avena fatua)", "settings": "foliage application, AAH 320 g/ha, evaluated three weeks after application", "how_it_was_run": "as §1"}, "[12]": {"test_system": "blackgrass", "experiment": "Test Example 5: herbicidal effect by foliage application, plastic box (Table 20, symbol J)", "type": "in vivo, blackgrass (Alopecurus myosuroides)", "settings": "foliage application, AAH 320 g/ha, evaluated three weeks after application", "how_it_was_run": "as §1"}, "[13]": {"test_system": "lambsquarters", "experiment": "Test Example 5: herbicidal effect by foliage application, plastic box (Table 20, symbol O)", "type": "in vivo, lambsquarters (Chenopodium album)", "settings": "foliage application, AAH 320 g/ha, evaluated three weeks after application", "how_it_was_run": "as §1"}, "[14]": {"test_system": "persian speedwell", "experiment": "Test Example 5: herbicidal effect by foliage application, plastic box (Table 20, symbol R)", "type": "in vivo, Persian speedwell (Veronica persica)", "settings": "foliage application, AAH 320 g/ha, evaluated three weeks after application", "how_it_was_run": "as §1"}, "[15]": {"test_system": "blackgrass", "experiment": "Test Example 4: herbicidal effect by soil treatment (Table 19, symbol J)", "type": "in vivo, blackgrass (Alopecurus myosuroides)", "settings": "amount of applied herbicide 320 g/ha", "how_it_was_run": "as §2"}, "[16]": {"test_system": "wild oat", "experiment": "Test Example 4: herbicidal effect by soil treatment (Table 19, symbol I)", "type": "in vivo, wild oat (Avena fatua)", "settings": "amount of applied herbicide 320 g/ha", "how_it_was_run": "as §2"}, "[17]": {"test_system": "chickweed", "experiment": "Test Example 4: herbicidal effect by soil treatment (Table 19, symbol P)", "type": "in vivo, common chickweed (Stellaria media)", "settings": "amount of applied herbicide 320 g/ha", "how_it_was_run": "as §2"}, "[18]": {"test_system": "green foxtail", "experiment": "Test Example 4: herbicidal effect by soil treatment (Table 19, symbol G)", "type": "in vivo, green foxtail (Setaria viridis)", "settings": "amount of applied herbicide 320 g/ha", "how_it_was_run": "as §2"}, "[19]": {"test_system": "southern crabgrass", "experiment": "Test Example 4: herbicidal effect by soil treatment (Table 19, symbol F)", "type": "in vivo, southern crabgrass (Digitaria ciliaris)", "settings": "amount of applied herbicide 320 g/ha", "how_it_was_run": "as §2"}, "[20]": {"test_system": "rice flat sedge", "experiment": "Test Example 3: herbicidal effect by foliage application, Wagner pot (Table 18, symbol E)", "type": "in vivo, rice flat sedge (Cyperus iria)", "settings": "amount of applied herbicide 320 g/ha", "how_it_was_run": "as §3"}, "[21]": {"test_system": "barnyard grass", "experiment": "Test Example 5: herbicidal effect by foliage application, plastic box (Table 20, symbol H)", "type": "in vivo, barnyard grass (Echinochloa crus-galli)", "settings": "foliage application, AAH 320 g/ha, evaluated three weeks after application", "how_it_was_run": "as §1"}, "[22]": {"test_system": "Italian ryegrass", "experiment": "Test Example 4: herbicidal effect by soil treatment (Table 19, symbol K)", "type": "in vivo, Italian ryegrass (Lolium multiflorum)", "settings": "amount of applied herbicide 320 g/ha", "how_it_was_run": "as §2"}, "[23]": {"test_system": "barnyard grass", "experiment": "Test Example 4: herbicidal effect by soil treatment (Table 19, symbol H)", "type": "in vivo, barnyard grass (Echinochloa crus-galli)", "settings": "amount of applied herbicide 320 g/ha", "how_it_was_run": "as §2"}, "[24]": {"test_system": "Chinese sprangletop", "experiment": "Test Example 3: herbicidal effect by foliage application, Wagner pot (Table 18, symbol D)", "type": "in vivo, chinese sprangletop (Leptochloa chinensis)", "settings": "amount of applied herbicide 320 g/ha", "how_it_was_run": "as §3"}, "[25]": {"test_system": "redroot pigweed", "experiment": "Test Example 4: herbicidal effect by soil treatment (Table 19, symbol N)", "type": "in vivo, redroot pigweed (Amaranthus retroflexus)", "settings": "amount of applied herbicide 320 g/ha", "how_it_was_run": "as §2"}, "[26]": {"test_system": "velvetleaf", "experiment": "Test Example 4: herbicidal effect by soil treatment (Table 19, symbol M)", "type": "in vivo, velvetleaf (Abutilon theophrasti)", "settings": "amount of applied herbicide 320 g/ha", "how_it_was_run": "as §2"}, "[27]": {"test_system": "velvetleaf", "experiment": "Test Example 5: herbicidal effect by foliage application, plastic box (Table 20, symbol M)", "type": "in vivo, velvetleaf (Abutilon theophrasti)", "settings": "foliage application, AAH 320 g/ha, evaluated three weeks after application", "how_it_was_run": "as §1"}},
  "data": [
    {"smiles": "Cc1nn(C)c(=O)c(-c2c(-c3ccc(Cl)cc3Cl)sc3ccc(F)cc23)c1O", "note": "[2-346]", "values": [
      {"measurement": "K: Italian ryegrass, herbicidal effect (criteria 0-5)", "setting": "[1]", "value": "3 (Herbicidal rate of 40% or more and less than 70%)"},
      {"measurement": "L: windgrass, herbicidal effect (criteria 0-5)", "setting": "[2]", "value": "2 (Herbicidal rate of 20% or more and less than 40%)"},
      {"measurement": "herbicidal effect on O: lambsquarters", "setting": "[3]", "value": "3 (Herbicidal rate of 40% or more and less than 70%)"},
      {"measurement": "P: chickweed, herbicidal effect (criteria 0-5)", "setting": "[4]", "value": "5 (Herbicidal rate of 90% or more (almost completely withered))"},
      {"measurement": "G: green foxtail, herbicidal effect (criteria 0-5)", "setting": "[5]", "value": "0 (Herbicidal rate of 5% or less (almost no effect))"},
      {"measurement": "herbicidal effect on H: barnyard grass", "setting": "[6]", "value": "4 (Herbicidal rate of 70% or more and less than 90%)"},
      {"measurement": "herbicidal effect on L: windgrass", "setting": "[7]", "value": "0 (Herbicidal rate of 5% or less (almost no effect))"},
      {"measurement": "F: southern crabgrass, herbicidal effect (criteria 0-5)", "setting": "[8]", "value": "0 (Herbicidal rate of 5% or less (almost no effect))"},
      {"measurement": "N: redroot pigweed, herbicidal effect (criteria 0-5)", "setting": "[9]", "value": "3 (Herbicidal rate of 40% or more and less than 70%)"},
      {"measurement": "herbicidal effect on R: persian speedwell", "setting": "[10]", "value": "0 (Herbicidal rate of 5% or less (almost no effect))"},
      {"measurement": "I: wild oat, herbicidal effect (criteria 0-5)", "setting": "[11]", "value": "0 (Herbicidal rate of 5% or less (almost no effect))"},
      {"measurement": "J: blackgrass, herbicidal effect (criteria 0-5)", "setting": "[12]", "value": "0 (Herbicidal rate of 5% or less (almost no effect))"},
      {"measurement": "O: lambsquarters, herbicidal effect (criteria 0-5)", "setting": "[13]", "value": "2 (Herbicidal rate of 20% or more and less than 40%)"},
      {"measurement": "R: persian speedwell, herbicidal effect (criteria 0-5)", "setting": "[14]", "value": "4 (Herbicidal rate of 70% or more and less than 90%)"},
      {"measurement": "herbicidal effect on J: blackgrass", "setting": "[15]", "value": "0 (Herbicidal rate of 5% or less (almost no effect))"},
      {"measurement": "herbicidal effect on I: wild oat", "setting": "[16]", "value": "0 (Herbicidal rate of 5% or less (almost no effect))"},
      {"measurement": "herbicidal effect on P: chickweed", "setting": "[17]", "value": "0 (Herbicidal rate of 5% or less (almost no effect))"},
      {"measurement": "herbicidal effect on G: green foxtail", "setting": "[18]", "value": "0 (Herbicidal rate of 5% or less (almost no effect))"},
      {"measurement": "herbicidal effect on F: southern crabgrass", "setting": "[19]", "value": "0 (Herbicidal rate of 5% or less (almost no effect))"},
      {"measurement": "herbicidal effect on E: rice flat sedge", "setting": "[20]", "value": "1 (Herbicidal rate of 5% or more and less than 20%)"},
      {"measurement": "H: barnyard grass, herbicidal effect (criteria 0-5)", "setting": "[21]", "value": "0 (Herbicidal rate of 5% or less (almost no effect))"},
      {"measurement": "herbicidal effect on K: Italian ryegrass", "setting": "[22]", "value": "0 (Herbicidal rate of 5% or less (almost no effect))"},
      {"measurement": "herbicidal effect on H: barnyard grass", "setting": "[23]", "value": "0 (Herbicidal rate of 5% or less (almost no effect))"},
      {"measurement": "herbicidal effect on D: Chinese sprangletop", "setting": "[24]", "value": "3 (Herbicidal rate of 40% or more and less than 70%)"},
      {"measurement": "herbicidal effect on N: redroot pigweed", "setting": "[25]", "value": "0 (Herbicidal rate of 5% or less (almost no effect))"},
      {"measurement": "herbicidal effect on M: velvetleaf", "setting": "[26]", "value": "0 (Herbicidal rate of 5% or less (almost no effect))"},
      {"measurement": "M: velvetleaf, herbicidal effect (criteria 0-5)", "setting": "[27]", "value": "1 (Herbicidal rate of 5% or more and less than 20%)"}
    ]}
  ]
}
